Measurements published in PubChem BioAssay AID248 (DTP/NCI, 2004).
Several values for one entry are separate records, joined by “and”; a condition that tells them apart may be missing. Equal values may be shown once. Inconclusive results and toxic doses are left out. No stated cut-off is given here; in the data, active means T/C of 150% or more; inactive means T/C below 125%.

Test system: L1210 leukemia ip in BDF1 mice, survival T/C
Assay: NCI In Vivo Anticancer Drug Screen. Data for tumor model L1210 Leukemia (intraperitoneal) in B6D2F1 (BDF1) mice
Settings: endpoint: mean survival time, higher = longer survival
In short: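 Transplantable tumor model; survival measured in treated vs vehicle control mice. Value = treated/control.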

[1] = dose: 50.0 mg/kg/injection, schedule: Q04DX003 (ip), vehicle: saline with Tween-80
[2] = dose: 100.0 mg/kg/injection, schedule: Q01DX009 (ip), vehicle: saline with Tween-80
[3] = dose: 100.0 mg/kg/injection, schedule: Q04DX002 (ip), vehicle: saline with Tween-80
[4] = dose: 100.0 mg/kg/injection, schedule: Q04DX003 (ip), vehicle: saline with Tween-80
[5] = dose: 200.0 mg/kg/injection, schedule: Q01DX009 (ip), vehicle: saline with Tween-80
[6] = dose: 200.0 mg/kg/injection, schedule: Q04DX002 (ip), vehicle: saline with Tween-80
[7] = dose: 200.0 mg/kg/injection, schedule: Q04DX003 (ip), vehicle: saline with Tween-80
[8] = dose: 400.0 mg/kg/injection, schedule: Q01DX009 (ip), vehicle: saline with Tween-80
[9] = dose: 400.0 mg/kg/injection, schedule: Q04DX002 (ip), vehicle: saline with Tween-80
[10] = dose: 400.0 mg/kg/injection, schedule: Q04DX003 (ip), vehicle: saline with Tween-80
[11] = dose: 25.0 mg/kg/injection, schedule: Q04DX003 (ip), vehicle: saline
[12] = dose: 50.0 mg/kg/injection, schedule: Q04DX003 (ip), vehicle: saline
[13] = dose: 100.0 mg/kg/injection, schedule: Q04DX003 (ip), vehicle: saline
[14] = dose: 100.0 mg/kg/injection, schedule: Q01DX009 (ip), vehicle: Klucel (hydroxypropylcellulose) (HPC)
[15] = dose: 200.0 mg/kg/injection, schedule: Q01DX009 (ip), vehicle: Klucel (hydroxypropylcellulose) (HPC)
[16] = dose: 75.0 mg/kg/injection, schedule: Q01DX001 (ip), vehicle: saline
[17] = dose: 150.0 mg/kg/injection, schedule: Q01DX001 (ip), vehicle: saline
[18] = dose: 100.0 mg/kg/injection, schedule: Q01DX009 (ip), vehicle: saline
[19] = dose: 200.0 mg/kg/injection, schedule: Q01DX009 (ip), vehicle: saline
[20] = dose: 400.0 mg/kg/injection, schedule: Q01DX009 (ip), vehicle: saline
[21] = dose: 25.0 mg/kg/injection, schedule: Q01DX009 (ip), vehicle: saline with Tween-80
[22] = dose: 50.0 mg/kg/injection, schedule: Q01DX009 (ip), vehicle: saline with Tween-80
[23] = dose: 100.0 mg/kg/injection, schedule: Q04DX002 (ip), vehicle: Klucel (hydroxypropylcellulose) (HPC)
[24] = dose: 200.0 mg/kg/injection, schedule: Q04DX002 (ip), vehicle: Klucel (hydroxypropylcellulose) (HPC)

Measured: T/C

Cc1ccc(Cl)cc1NC(=O)Nc1cccc2ccc(O)cc12
inactive: [1] 102 % of control | dose: 100.0 mg/kg/injection, schedule: Q01DX001 (ip), vehicle: saline with Tween-80 95 % of control | [2] 95 % of control and 101 % of control | [3] 102 % of control and 90 % of control | [4] 96 % of control | dose: 200.0 mg/kg/injection, schedule: Q01DX001 (ip), vehicle: saline with Tween-80 97 % of control | [5] 88 % of control and 92 % of control | [6] 95 % of control and 91 % of control | [7] 91 % of control | dose: 400.0 mg/kg/injection, schedule: Q01DX001 (ip), vehicle: saline with Tween-80 101 % of control | [8] 95 % of control and 103 % of control | [9] 87 % of control and 90 % of control | [10] 96 % of control

CCCSc1ccccn1
inactive: [11] 101 % of control | [12] 93 % of control | [13] 95 % of control

CCN(C(=O)Nc1ccc([N+](=O)[O-])cc1OC)c1cccc(C)c1
inactive: [14] 94 % of control | [15] 97 % of control | dose: 400.0 mg/kg/injection, schedule: Q01DX009 (ip), vehicle: Klucel (hydroxypropylcellulose) (HPC) 100 % of control

CCOC(=O)c1c(N)cc(=O)[nH]c1O
inactive: [16] 101 % of control | [17] 98 % of control | dose: 300.0 mg/kg/injection, schedule: Q01DX001 (ip), vehicle: saline 95 % of control

CCOC(=O)C(=N\Nc1ccccc1OC)/C(C)=N\NC(N)=S
inactive: dose: 75.0 mg/kg/injection, schedule: Q01DX001 (ip), vehicle: acetone 93 % of control | dose: 150.0 mg/kg/injection, schedule: Q01DX001 (ip), vehicle: acetone 90 % of control | [17] 94 % of control

O=C(CCCC(=O)N/N=C/c1cccc(I)c1)N/N=C\c1cccc(I)c1
inactive: dose: 50.0 mg/kg/injection, schedule: Q01DX001 (ip), vehicle: saline 100 % of control | dose: 100.0 mg/kg/injection, schedule: Q01DX001 (ip), vehicle: saline 100 % of control | dose: 200.0 mg/kg/injection, schedule: Q01DX001 (ip), vehicle: saline 100 % of control | dose: 400.0 mg/kg/injection, schedule: Q01DX001 (ip), vehicle: saline 97 % of control

COC1COC(OC)C(OC)C1OC (configuration not stated)
inactive: dose: 25.0 mg/kg/injection, schedule: Q04DX002 (ip), vehicle: saline 87 % of control | dose: 50.0 mg/kg/injection, schedule: Q04DX002 (ip), vehicle: saline 104 % of control | dose: 100.0 mg/kg/injection, schedule: Q04DX002 (ip), vehicle: saline 90 % of control

CN1CCN(C2=Cc3ccccc3C(O)C(Cc3ccccc3)=N2)CC1 (configuration not stated)
inactive: [4] 100 % of control | [7] 96 % of control | [10] 96 % of control

Cc1ccc(/C([O-])=C(\C(=S)Nc2cccc(C)c2)[n+]2ccccc2)cc1
inactive: [2] 103 % of control and 112 % of control | [3] 93 % of control and 95 % of control | [5] 93 % of control and 100 % of control | [6] 93 % of control and 115 % of control | [8] 95 % of control and 101 % of control | [9] 98 % of control and 107 % of control

Nc1nc(=S)[nH]c(C(=O)O)c1Oc1ccccc1
inactive: dose: 50.0 mg/kg/injection, schedule: Q01DX009 (ip), vehicle: Klucel (hydroxypropylcellulose) (HPC) 87 % of control | dose: 50.0 mg/kg/injection, schedule: Q04DX003 (ip), vehicle: Klucel (hydroxypropylcellulose) (HPC) 86 % of control | dose: 100.0 mg/kg/injection, schedule: Q01DX001 (ip), vehicle: Klucel (hydroxypropylcellulose) (HPC) 92 % of control | [14] 102 % of control | dose: 100.0 mg/kg/injection, schedule: Q04DX003 (ip), vehicle: Klucel (hydroxypropylcellulose) (HPC) 89 % of control | dose: 200.0 mg/kg/injection, schedule: Q01DX001 (ip), vehicle: Klucel (hydroxypropylcellulose) (HPC) 94 % of control | [15] 95 % of control | dose: 200.0 mg/kg/injection, schedule: Q04DX003 (ip), vehicle: Klucel (hydroxypropylcellulose) (HPC) 87 % of control

O=C(c1cc(Cl)cc(Cl)c1)N1CC1
inactive: dose: 25.0 mg/kg/injection, schedule: Q01DX009 (ip), vehicle: saline 100 % of control | dose: 50.0 mg/kg/injection, schedule: Q01DX009 (ip), vehicle: saline 91 % of control | [18] 90 % of control | [19] 100 % of control | [20] 96 % of control

CO[Si](OC)(OC)OC
inactive: [21] 92 % of control | [11] 94 % of control | [22] 92 % of control | [12] 108 % of control | [4] 101 % of control | [13] 103 % of control

CCCN1CCC(C(=O)CC)(c2cccc(O)c2)CC1
inactive: [23] 106 % of control | [24] 106 % of control

CC(=O)OCC(=O)[C@@]1(O)CC[C@H]2[C@@H]3CCC4=CC(=O)C=C[C@]4(C)[C@H]3[C@@H](O)C[C@@]21C
inactive: dose: 50.0 mg/kg/injection, schedule: Q04DX003 (sc), vehicle: steriod suspending solution 97 % of control | dose: 100.0 mg/kg/injection, schedule: Q04DX003 (sc), vehicle: steriod suspending solution 94 % of control | dose: 200.0 mg/kg/injection, schedule: Q04DX003 (sc), vehicle: steriod suspending solution 96 % of control | dose: 400.0 mg/kg/injection, schedule: Q04DX003 (sc), vehicle: steriod suspending solution 106 % of control

O=C(CBr)c1ccc2c3c(cccc13)C=C2
inactive: [16] 98 % of control

CN1Cc2ccccc2/C=C\c2ccccc21
inactive: [23] 103 % of control | [24] 106 % of control | dose: 400.0 mg/kg/injection, schedule: Q04DX002 (ip), vehicle: Klucel (hydroxypropylcellulose) (HPC) 100 % of control

CC(CCN=Cc1ccccc1O)N=Cc1ccccc1O (configuration not stated)
inactive: dose: 50.0 mg/kg/injection, schedule: Q01DX001 (ip), vehicle: other 107 % of control | dose: 100.0 mg/kg/injection, schedule: Q01DX001 (ip), vehicle: other 89 % of control | dose: 200.0 mg/kg/injection, schedule: Q01DX001 (ip), vehicle: other 97 % of control | dose: 400.0 mg/kg/injection, schedule: Q01DX001 (ip), vehicle: other 95 % of control

CCOc1cc(-c2nc(-c3ccc(N=Cc4ccc(N(CCCOS(C)(=O)=O)CCCOS(C)(=O)=O)cc4)cc3)cs2)ccc1OCc1ccccc1
inactive: [2] 92 % of control | [5] 94 % of control | [8] 92 % of control

Cc1cnc(C(N)=O)c(=O)[nH]1
inactive: [18] 96 % of control | [13] 100 % of control | [19] 96 % of control | dose: 200.0 mg/kg/injection, schedule: Q04DX003 (ip), vehicle: saline 100 % of control | [20] 98 % of control | dose: 400.0 mg/kg/injection, schedule: Q04DX003 (ip), vehicle: saline 97 % of control

O=C(Nc1ccc(Cl)c(Cl)c1)O/N=C/c1ccccn1
inactive: [22] 96 % of control | [2] 91 % of control and 92 % of control | [4] 95 % of control | [7] 90 % of control | [8] 91 % of control | [10] 91 % of control

C=C(Cl)CNN1CCOCC1
inactive: [21] 96 % of control | dose: 25.0 mg/kg/injection, schedule: Q04DX003 (ip), vehicle: saline with Tween-80 95 % of control | [22] 98 % of control | [1] 97 % of control | [2] 114 % of control | [4] 98 % of control and 111 % of control | [7] 94 % of control

OC(CC1=NNC(=S)NC1)(C(F)(F)F)C(F)(F)F
inactive: [4] 95 % of control | [7] 87 % of control

N#CC(C#N)=Cc1ccc2c(c1)CCC2
inactive: dose: 10.0 mg/kg/injection, schedule: Q01DX009 (ip), vehicle: saline with Tween-80 100 % of control | dose: 20.0 mg/kg/injection, schedule: Q01DX009 (ip), vehicle: saline with Tween-80 96 % of control | dose: 40.0 mg/kg/injection, schedule: Q01DX009 (ip), vehicle: saline with Tween-80 94 % of control | dose: 75.0 mg/kg/injection, schedule: Q01DX001 (ip), vehicle: other 96 % of control
